Experimental data: patent publication US20250249098A1, “CRYOPRESERVATION OF NK CELL PRODUCTS FOR OFF-THE-SHELF IMMUNOTHERAPY” (BOARD OF REGENTS, THE UNIVERSITY OF TEXAS SYSTEM, priority 2022, published 2025)

Legend:
[1] = tested on: SKOV3 cells and/or UMRC3 cells; assay: xCELLigence impedance assay, thawed iC9/CD27 CAR/IL-15-NK cells; format: cell-based; settings: pre-cryopreservation treatment at 1 micromolar; E:T 2:1; vs no pre-treatment
Method: The ovarian cancer cell line (SKOV3) (FIG. 16A) and renal cell carcinoma cell line (UMRC3) (FIG. 16B), were grown in 96 well RTCA E-Plates overnight.

[2] = tested on: A375 cells and/or Saos-2 cells; assay: xCELLigence impedance assay, thawed NYESO-TCR-NK cells; settings: pre-cryopreservation treatment at 1 micromolar; E:T 2:1; vs no pre-treatment
Method: As shown in FIGS. 17A-17C, addition of various tyrosine kinase inhibitors prior to freezing enhanced the antitumor cytotoxicity of TCR-NK cells post-thaw against solid cancer, as determined by xCELLigence impedance assays. The melanoma cell line (A375) (FIG. 17A) and osteosarcoma cell line (Saos-2) (FIG. 17B), were grown in 96 well RTCA E-Plates overnight. The next day, frozen NYESO targeting TCR-NK cells that were not treated or were treated pre-cryopreservation with a tyrosine kinase inhibitor (Dasatinib, Bosutinib, Nilotinib, or Saracatinib; at a final concentration of 1 micromolar) were thawed and added at 2:1 effector to target (E:T) ratio. The cancer cell growth was measured continuously over time (X axis) by the xCELLigence device and represented as normalized cell index (Y axis).

[3] = tested on: CAR-NK cells; assay: Post-thaw viability of CAR-NK cells by flow cytometry (Annexin V / cell death marker); format: cell-based, human
Method: (§1) CAR-NK cells were isolated, pre-activated, expanded, and treated with Dasatinib for 24, 48, or 72 hours prior to cryopreservation as described in Example 1 (or not treated with Dasatinib as control). Immediately prior to cryopreservation, CAR-NK cells were washed to remove the deactivating agent.

[4] = tested on: CAR-NK cells; assay: Post-thaw CAR expression of CAR-NK cells by flow cytometry; format: cell-based, human
Method: as §1

[5] = tested on: U266 cells; assay: Chromium release assay, thawed NYESO-TCR-NK cells; format: cell-based; settings: pre-cryopreservation treatment; E:T 2:1, 1:1, 0.5:1, 0.25:1; vs no pre-treatment
Method: After four hours, chromium release was measured, which corresponded to cancer cell death.

[6] = 24 h treatment prior to cryopreservation
[7] = 48 h treatment prior to cryopreservation

| SMILES | cytotoxicity of thawed CAR-NK cells (normalized cell index) [1] | cytotoxicity of thawed TCR-NK cells (normalized cell index) [2] | living cell percentage [3, 6] | living cell percentage [3, 7] | living cell percentage ([3]; 72 h treatment prior to cryopreservation) | CAR Mean Fluorescence Intensity (MFI) [4, 6] | percentage of cells that are CAR positive [4, 6] | CAR Mean Fluorescence Intensity (MFI) [4, 7] | percentage of cells that are CAR positive [4, 7] | cytotoxicity of thawed TCR-NK cells (chromium release after four hours) [5] |
| --- | --- | --- | --- | --- | --- | --- | --- | --- | --- | --- |
| CN1CCN(CCOc2cc(OC3CCOCC3)c3c(Nc4c(Cl)ccc5c4OCO5)ncnc3c2)CC1 [Saracatinib] | increased cytotoxicity | – | – | – | – | – | – | – | – | – |
| COc1cc(Nc2c(C#N)cnc3cc(OCCCN4CCN(C)CC4)c(OC)cc23)c(Cl)cc1Cl [Bosutinib] | – | increased cytotoxicity | – | – | – | – | – | – | – | – |
| Cc1cn(-c2cc(NC(=O)c3ccc(C)c(Nc4nccc(-c5cccnc5)n4)c3)cc(C(F)(F)F)c2)cn1 [Nilotinib] | increased cytotoxicity | increased cytotoxicity | – | – | – | – | – | – | – | – |
| Cc1nc(Nc2ncc(C(=O)Nc3c(C)cccc3Cl)s2)cc(N2CCN(CCO)CC2)n1 [Dasatinib] | increased cytotoxicity | increased cytotoxicity | 61.7% | 68.8% | 70.9% | 7987 | 64.9% | 4620 | 55.4% | increased cytotoxicity |
